From patent US20220339233A1, “COMPOSITIONS AND METHODS FOR PREVENTING RECURRENCE OF CANCER” (YALE UNIVERSITY, priority 2019, published 2022)

What was measured:
[1] = tested on: Raw cells; assay: iNOS/Arg mRNA expression of macrophage with IFNγ (RT-qPCR); type: cell-based; settings: in the presence of IFNγ 10 ng/mL; GU treated
Experimental: (§1) FIGS. 12A-12C show the effects of various YIV-906 formulations on M1/M2 mRNA expression. […] Raw cells were cultured in the presence of murine M-CSF (10 ng/mL) for 3 days, and then cultured in presence with IFNγ 10 ng/mL alone or with YIV-906GU/its components to induce polarization to M1-like macrophage for 24 h. The mRNA expression was determined by RT-qPCR following treatment at day 8. FIG. 12C illustrates the detection of YIV-906 compounds of Hepa 1-6 tumor following oral administration of YIV-906 with or without Anti-PD1 using LC-MS as described herein.
Total RNA was extracted with TRIzol reagent (Invitrogen, California, USA). The aqueous phase was collected and then one volume of ethanol was added, following the manufacturer's instructions. Before centrifuging, this slurry was added to a column (miRNeasy, Qiagen, Venlo, Limburg) for further extraction and simultaneous DNA digestion (RNase-Free DNAse set, Qiagen). cDNA was synthesized using random primers and reverse transcriptase MMLV (New England Biolabs, Ipswich, MA). qPCR assays were performed using iTaq™ SYBR® Green Supermix and the CFX96 Real-Time PCR Detection System (Bio-Rad Laboratories, Hercules, Calif.).

[2] = target: T1, mouse IDO (Mus musculus, UniProt P28776); assay: IDO activity of IDO transfected HEK293 cells; type: cell-based; settings: L-tryptophan 125 μM, 24 hr, kynurenine in medium
T1 construct: expressed in transfected cells; host or cells: HEK293
T1 sequence (P28776 whole entry): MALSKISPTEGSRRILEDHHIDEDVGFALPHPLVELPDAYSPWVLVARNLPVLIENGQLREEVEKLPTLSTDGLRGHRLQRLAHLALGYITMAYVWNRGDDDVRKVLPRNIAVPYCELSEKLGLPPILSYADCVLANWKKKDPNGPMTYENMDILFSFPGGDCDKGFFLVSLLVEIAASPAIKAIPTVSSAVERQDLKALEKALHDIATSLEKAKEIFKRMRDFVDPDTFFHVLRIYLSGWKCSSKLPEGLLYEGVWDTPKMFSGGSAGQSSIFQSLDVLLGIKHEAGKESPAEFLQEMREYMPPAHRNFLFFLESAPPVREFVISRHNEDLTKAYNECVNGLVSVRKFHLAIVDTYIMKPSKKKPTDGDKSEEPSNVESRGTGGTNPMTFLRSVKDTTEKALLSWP
Experimental: HEK293 cells were transfected with mouse IDO expression plasmids and then seeded for culturing overnight. L-tryptophan 125 μM with or without YIV906, YIV906GU or its flavonoids were added to the wells for 24 hr. The concentration of kynurenine of culture medium was measured using colorimetric based assay. Results were normalized to protein concentration in each well.
2×10^6 HEK293 cells were transfected with mouse IDO (2 μg/10 cm plate) for 48 h. For one plate, 1 mL PBS was used to collect cells into a 2 ml tube. Cells were centrifuged at 3,500 rpm 1 min. Cells were then sonicated in ice cold PB buffer (1 mL, pH 6.5). Cell lysis was clarified by centrifuging at 12,000 rpm for 5 min at 4° C. 25 μL cell lysis solution was mixed with YIV906 or YIV906GU (25 μL) at desired concentrations. Reaction buffer containing 50 μL PB buffer (100 mM, pH 6.5), 10 μL methylene blue (2.5%), 100 μL catalase (20 mg/mL), 250 μL L-tryptophan (500 mM) and, for every 10 mL of total solution, 70 mg of vitamin C. The reaction buffer was then added to the cell lysis solution. The solution was allowed to react for 1.5 h at 37° C. Trichloroacetic acid 30% (25 μL) was added and incubated at 50° C. for 1 hr. […] Absorbance at 540 nm was measured using a UV-vis spectrometer to determine kynurenine concentration.

[3] = LC-MS detection of YIV-906 compounds of Hepa 1-6 tumor; set-up: species or system mice; settings: mouse, in vivo; for detection in the tumor mass: po
Experimental: as §1
Each tumor sample were homogenized in 200 μL acetronitrile/methanol/water(2/2/1, v/v/v) and 1 mm glass beads (BioSpec Products, Bartlesville, Okla.) for 30 s at 3500 rpm twice. The homogenate was then centrifuged at 12000 rpm for 15 min at 4° C. The supernatant was dried down in a Speedvac. The residue of each tumor sample was re-dissolved in 100 μL of acetonitrile, and vortexed at 3000 rpm for 3 min. The solution was then centrifuged at 12000 rpm at 4° C. for 15 min, and 2 μL supernatant was injected into the UPLC-QTOF system for analysis. All sample analyses were performed on an ACQUITY ultra-performance liquid chromatography (UPLC) system coupled with a quadrupole-time of flight (Q-TOF) MS instrument (UPLC Xevo G2-XS QTOF MS, Waters Corp., Milford, Mass., USA) with an electrospray ionization (ESI) source. Separation was carried out on a Waters ACQUITY BEH C18 column (2.1 mm×100 mm id, 1.7 μm) with a guard column (Waters ACQUITY BEH C18 column (2.1 mm×5 mm id, 1.7 μm)).
The mobile phase consisted of acetonitrile (A) and water containing 0.1% formic acid (B) using a gradient elution of 5% A at 0-2 min, 5-10% A at 2-3 min, 10-17% A at 3-10 min, 17-30% A at 10-15 min, 30-40% A at 15-20 min, 40-80% A at 20-25 min, 80% A at 25-30 min, 80-5% A at 30-31 min, and 5% A at 31-35 min. The flow rate was 0.3 mL/min. Mass spectrometry was performed on a Water Xevo G2-XS QTOF. The scan range was from 50 to 1000 Da. For the negative electrospray mode, the capillary voltage and cone voltage were set at 2.5 kV and 60 V, respectively. […]

O=c1cc(-c2ccccc2)oc2cc(O)c(O)c(O)c12 [baicalein]
IFNγ action on increasing iNOS/Arg ratio [1]: potentiate | IDO enzyme activity in cell cultures [2]: most potent | presence in tumors of the YIV-906 plus anti-PD1 group [3]: did not have | detection in the tumor mass [3]: detected

COc1c(O)cc2oc(-c3ccccc3)cc(=O)c2c1O [oroxylin A]
IFNγ action on increasing iNOS/Arg ratio [1]: potentiate | detection in the tumor mass [3]: detected
